Assay results published in patent US9919998B2, “Antibacterial agents: Nα-aroyl-N-aryl-phenylalaninamides” (priority 2014, dated 2018).
≈ marks a conversion by molar mass, not a printed value. Like-named read-outs stand apart in the source and are kept apart here.

Tests used:
Assay type in all cases: cell-based
[1] = test system: Mycobacterium tuberculosis H37Rv; assay: Microplate Alamar Blue assay (MABA) MIC, M. tuberculosis; conditions: read-out: MIC Mycobacterium tuberculosis H37Rv
From the text: (§1) Minimal inhibitory concentrations (MICs) in Mycobacterium tuberculosis H37Rv and Mycobacterium avium ATCC 25291 were quantified using microplate Alamar Blue assays as described (MABA; [Collins, L. & Franzblau, S. (1997) Microplate Alamar Blue assay versus BACTEC 460 system for high-throughput screening of compounds against Mycobacterium tuberculosis and Mycobacterium avium. Antimicrob. Agents Chemother. 41, 1004-1009]).

[2] = test system: Mycobacterium avium ATCC 25291; assay: Microplate Alamar Blue assay (MABA) MIC, M. avium; conditions: ATCC25291, M. avium ATCC 25291
From the text: as §1

[3] = test system: Mycobacterium smegmatis ATCC 19420; assay: Broth microdilution MIC, M. smegmatis; conditions: Mycolicibacterium smegmatis
From the text: MICs in Mycobacterium smegmatis ATCC 19420 and Mycobacterium smegmatis ATCC 19420 derivatives were quantified using broth microdilution assays as described [Clinical and Laboratory Standards Institute (CLSI/NCCLS) (2009) Methods for Dilution Antimicrobial Susceptibility Tests for Bacteria That Grow Aerobically; Approved Standard, Eighth Edition. CLIS Document M07-A8 (CLIS, Wayne Pa.)].

[4] = test system: Vero E6 ATCC CRL1586 cells; assay: Mammalian-cell cytotoxicity, minimal cytotoxic concentration (CellTiter96)
Procedure: Minimal cytotoxic concentrations (MCCs) against mammalian cells in culture were determined using Vero E6 ATCC CRL1586 cells and the CellTiter96 assay kit (Promega, Inc.). […]

[5] = ATCC19420, M. smegmatis ATCC 19420, read-out: MIC Mycobacterium smegmatis ATCC 19420
[6] = ATCC19420, broth microdilution assays, M. smegmatis ATCC19420, read-out: Inhibition of mycobacterial growth in culture (MICs)

Row | Structure (SMILES) | MIC [1] | MIC [2] | MIC [3, 5] | MIC [3, 6] | MCC mammalian cells Vero E6 ATCC CRL1586 [4]
1 | O=C(N[C@@H](Cc1ccccc1)C(=O)Nc1cc(F)ccc1N1CCNCC1)c1ccccc1F (racemic) [IX-214b] | 12.5 µg/mL (≈ 26.9 µM) | 12.5 µg/mL (≈ 26.9 µM) | 6.25 µg/mL (≈ 13.5 µM) |  | 
2 | O=C(N[C@@H](Cc1ccccc1)C(=O)Nc1cc(Cl)ccc1N1CCNCC1)c1ccccc1F (racemic) [IX-274b] | 6.25 µg/mL (≈ 13 µM) | 6.25 µg/mL (≈ 13 µM) | 6.25 µg/mL (≈ 13 µM) |  | 
3 | O=C(NC(Cc1ccccc1)C(=O)Nc1ccccc1F)c1ccccc1 [AAP3, Nα-benzoyl-N-(2-fluorophenyl)-D/L-phenylalaninamide] |  |  |  | 1.56 µg/mL (≈ 4.3 µM) | 
4 | O=C(NC(Cc1ccccc1)C(=O)Nc1ccccc1)c1ccccc1 [AAP4, Nα-benzoyl-N-phenyl-D/L-phenylalaninamide] |  |  |  | 0.78 µg/mL (≈ 2.26 µM) | 
5 | O=C(NC(Cc1ccccc1)C(=O)Nc1ccncc1)c1ccccc1 [AAP5, Nα-benzoyl-N-(4-pyridyl)-D/L-phenylalaninamide] |  |  |  | 12.5 µg/mL (≈ 36.2 µM) | 
6 | O=C(NC(Cc1ccccc1)C(=O)Nc1ccccn1)c1ccccc1 (stereo not shown) [AAP6] |  |  |  | 1.56 µg/mL (≈ 4.52 µM) | 
7 | COc1cccc(NC(=O)C(Cc2ccccc2)NC(=O)c2ccccc2)c1C (stereo not shown) [I-18] | > 50 µg/mL | > 50 µg/mL | 0.78 µg/mL (≈ 2.01 µM) |  | >100 µg/mL
8 | CCOc1cccc(C(=O)NC(Cc2ccccc2)C(=O)Nc2ccccc2C)c1 (stereo not shown) [I-37] | > 50 µg/mL |  | 25 µg/mL (≈ 62.1 µM) |  | 5 µg/mL
9 | Cc1cccc(C(=O)NC(Cc2ccccc2)C(=O)Nc2ccccc2C)c1 (stereo not shown) [I-113] | > 50 µg/mL |  | 1.56 µg/mL (≈ 4.19 µM) |  | >100 µg/mL
10 | CCc1cccc(C(=O)NC(Cc2ccccc2)C(=O)Nc2ccccc2C)c1 (stereo not shown) [I-124] | > 50 µg/mL |  | 25 µg/mL (≈ 64.7 µM) |  | >39 µg/mL
11 | Cc1ccccc1NC(=O)C(Cc1ccc(N2CCOCC2)cc1)NC(=O)c1ccccc1 (stereo not shown) [I-188] | 25 µg/mL (≈ 56.4 µM) |  | 6.25 µg/mL (≈ 14.1 µM) |  | 35 µg/mL
12 | Cc1c(NC(=O)C(Cc2ccccc2)NC(=O)c2ccccc2)cccc1-n1cncn1 (stereo not shown) [I-204] | 25 µg/mL (≈ 58.8 µM) |  | 3.12 µg/mL (≈ 7.34 µM) |  | >100 µg/mL
13 | O=C(NC(Cc1ccccc1)C(=O)Nc1ccccc1-n1ccnn1)c1ccccc1 (stereo not shown) [I-214] | > 50 µg/mL |  | 3.12 µg/mL (≈ 7.59 µM) |  | >100 µg/mL
14 | Cc1c(NC(=O)C(Cc2ccccc2)NC(=O)c2ccccc2)cccc1-n1ccnn1 (stereo not shown) [I-215] | > 50 µg/mL |  | 3.12 µg/mL (≈ 7.34 µM) |  | >100 µg/mL
15 | O=C(NC(Cc1ccccc1)C(=O)Nc1ccccc1-n1cnnn1)c1ccccc1 (stereo not shown) [I-225] | > 50 µg/mL |  | 6.25 µg/mL (≈ 15.2 µM) |  | >100 µg/mL
16 | Cc1c(NC(=O)C(Cc2ccccc2)NC(=O)c2ccccc2)cccc1-n1cnnn1 (stereo not shown) [I-226] | > 50 µg/mL |  | 0.78 µg/mL (≈ 1.83 µM) |  | >100 µg/mL
17 | O=C(NC(Cc1ccc(O)cc1)C(=O)Nc1cccc2cnccc12)c1ccccc1 (stereo not shown) [IX-19, N-(3-(4-hydroxyphenyl)-1-(isoquinolin-5-ylamino)-1-oxopropan-2-yl)benzamide] | 6.25 µg/mL (≈ 15.2 µM) |  | 0.39 µg/mL (≈ 0.948 µM) |  | 42 µg/mL

Row | Structure (SMILES) | MIC [1] | MIC [2] | MIC [3, 5] | MIC [3, 6] | MCC mammalian cells Vero E6 ATCC CRL1586 [4]
18 | Cc1ccccc1NC(=O)C(Cc1ccc(O)c(O)c1)NC(=O)c1ccccc1 (stereo not shown) [IX-25, N-(3-(3,4-dihydroxyphenyl)-1-oxo-1-(o-tolylamino)propan-2-yl)benzamide] |  |  | 1.56 µg/mL (≈ 4 µM) |  | 21 µg/mL
19 | Cc1ccc(Cl)cc1NC(=O)[C@@H](Cc1ccccc1)NC(=O)c1ccccc1F [IX-55a] | 0.78 µg/mL (≈ 1.9 µM) | 0.78 µg/mL (≈ 1.9 µM) | 0.073 µg/mL (≈ 0.178 µM) |  | 
20 | Cc1ccc(Cl)cc1NC(=O)[C@H](Cc1ccccc1)NC(=O)c1ccccc1F [IX-55b] | > 50 µg/mL | > 50 µg/mL | 25 µg/mL (≈ 60.8 µM) |  | 
21 | O=C(NC(Cc1ccccc1)C(=O)Nc1cccc2ncccc12)c1ccccc1F (stereo not shown) [IX-58, 2-fluoro-N-(1-oxo-3-phenyl-1-(quinolin-5-ylamino)propan-2-yl)benzamide] |  |  | 1.56 µg/mL (≈ 3.77 µM) |  | 78 µg/mL
22 | Cc1ccccc1NC(=O)C(Cc1ccc(O)cc1)NC(=O)c1ccccc1C (stereo not shown) [IX-66, N-(3-(4-hydroxyphenyl)-1-oxo-1-(o-tolylamino)propan-2-yl)-2-methylbenzamide] | 50 µg/mL (≈ 129 µM) |  | 1.56 µg/mL (≈ 4.02 µM) |  | >100 µg/mL
23 | O=C(NC(Cc1ccc(O)cc1)C(=O)Nc1cccc2c1OCO2)c1ccccc1Br (stereo not shown) [IX-125, N-(1-(benzo[d][1,3]dioxol-4-ylamino)-3-(4-hydroxyphenyl)-1-oxopropan-2-yl)-2-bromobenzamide] | 25 µg/mL (≈ 51.7 µM) | 50 µg/mL (≈ 103 µM) | 1.56 µg/mL (≈ 3.23 µM) |  | 
24 | CC(=O)N1CCN(c2ccccc2NC(=O)C(Cc2ccccc2)NC(=O)c2ccccc2)CC1 (stereo not shown) [IX-236, N-(1-((2-(4-acetylpiperazin-1-yl)phenyl)amino)-1-oxo-3-phenyl-propan-2-yl)benzamide] | 6.25 µg/mL (≈ 13.3 µM) | 6.25 µg/mL (≈ 13.3 µM) | 0.195 µg/mL (≈ 0.414 µM) |  | 
25 | CNC(=O)N1CCN(c2ccccc2NC(=O)C(Cc2ccccc2)NC(=O)c2ccccc2)CC1 (stereo not shown) [IX-238, 4-(2-(2-benzamido-3-phenylpropanamido)phenyl)-N-methyl-piperazine-1-carboxamide] | 1.56 µg/mL (≈ 3.21 µM) | 1.56 µg/mL (≈ 3.21 µM) | 0.195 µg/mL (≈ 0.402 µM) |  | 
26 | O=C(NC(Cc1ccccc1)C(=O)Nc1cc(F)ccc1N1CCN(CCO)CC1)c1cccs1 (stereo not shown) [IX-247, N-(1-((5-fluoro-2-(4-(2-hydroxyethyl)piperazin-1-yl)phenyl)amino)-1-oxo-3-phenylpropan-2-yl)thiophene-2-carboxamide] | 1.56 µg/mL (≈ 3.14 µM) | 3.12 µg/mL (≈ 6.29 µM) | 0.39 µg/mL (≈ 0.785 µM) |  | 
27 | COc1ccc(F)cc1NC(=O)C(Cc1ccccc1)NC(=O)c1ccccc1C (stereo not shown) [IX-277, N-(1-((5-fluoro-2-methoxyphenyl)amino)-1-oxo-3-phenylpropan-2-yl)-2-methylbenzamide] | 0.31 µg/mL (≈ 0.763 µM) | 0.39 µg/mL (≈ 0.96 µM) | 0.39 µg/mL (≈ 0.96 µM) |  | 
28 | Cn1ncc2c(NC(=O)C(Cc3ccccc3)NC(=O)c3ccccc3F)cccc21 (stereo not shown) [IX-296, 2-fluoro-N-(1-((1-methyl-1H-indazol-4-yl)amino)-1-oxo-3-phenyl-propan-2-yl)benzamide] | 1.56 µg/mL (≈ 3.75 µM) | 1.56 µg/mL (≈ 3.75 µM) | 0.78 µg/mL (≈ 1.87 µM) |  | 
29 | Cn1nnc2cccc(NC(=O)C(Cc3ccccc3)NC(=O)c3ccccc3F)c21 (stereo not shown) [IX-300, 2-fluoro-N-(1-((1-methyl-1H-benzo[d][1,2,3]triazol-7-yl)amino)-1-oxo-3-phenylpropan-2-yl)benzamide] | 6.25 µg/mL (≈ 15 µM) | 6.25 µg/mL (≈ 15 µM) | 1.56 µg/mL (≈ 3.74 µM) |  | 
30 | Cc1ccccc1C(=O)NC(Cc1ccccc1)C(=O)Nc1cccc2nnn(C)c12 (stereo not shown) [IX-301, 2-methyl-N-(1-((1-methyl-1H-benzo[d][1,2,3]triazol-7-yl)amino)-1-oxo-3-phenylpropan-2-yl)benzamide] | 6.25 µg/mL (≈ 15.1 µM) | 3.13 µg/mL (≈ 7.57 µM) | 0.39 µg/mL (≈ 0.943 µM) |  | 
31 | CC1CN(c2ccc(F)cc2NC(=O)C(Cc2ccccc2)NC(=O)c2ccccc2F)CCN1 (stereo not shown) [IX-305, 2-fluoro-N-(1-((5-fluoro-2-(3-methylpiperazin-1-yl)phenyl)amino)-1-oxo-3-phenylpropan-2-yl)benzamide] | 1.56 µg/mL (≈ 3.26 µM) | 12.5 µg/mL (≈ 26.1 µM) | 0.78 µg/mL (≈ 1.63 µM) |  | 
32 | NC1CCN(c2ccc(F)cc2NC(=O)C(Cc2ccccc2)NC(=O)c2ccccc2F)C1 (stereo not shown) [IX-306, N-(1-((2-(3-aminopyrrolidin-1-yl)-5-fluorophenyl)amino)-1-oxo-3-phenylpropan-2-yl)-2-fluorobenzamide] |  |  | 0.78 µg/mL (≈ 1.68 µM) |  | 
33 | O=C(NC(Cc1ccccc1)C(=O)Nc1cc(F)ccc1N1CC2CCCNC2C1)c1ccccc1F (stereo not shown) [IX-307, 2-fluoro-N-(1-((5-fluoro-2-(octahydro-6H-pyrrolo[3,4-b]pyridin-6-yl)-phenyl)amino)-1-oxo-3-phenylpropan-2-yl)benzamide] | 12.5 µg/mL (≈ 24.8 µM) | 25 µg/mL (≈ 49.5 µM) | 6.12 µg/mL (≈ 12.1 µM) |  | 
34 | CC1CN(c2ccc(F)cc2NC(=O)C(Cc2ccccc2)NC(=O)c2ccccc2F)CC(C)N1 (stereo not shown) [IX-308, N-(1-((2-(3,5-dimethylpiperazin-1-yl)-5-fluorophenyl)amino)-1-oxo-3-phenylpropan-2-yl)-2-fluorobenzamide] | 3.13 µg/mL (≈ 6.35 µM) | < 0.39 µg/mL | 0.39 µg/mL (≈ 0.792 µM) |  | 
